For 64 molecules, melting point results are on record in a melting point compilation (Tetko et al.; mined from patent text by program, amines drawn as free bases though some values may be those of a salt).

The term melting point denotes the temperature of the solid-liquid transition.

As to `O=C(CN1CCN(C(c2ccccc2)c2ccccc2)CC1)c1ccc(OCc2ccccc2)cc1`, the melting point came to 151 °C. Under `Cc1ccc(Cl)cc1N1CN(C(C)(C)C)CN(C)C1=S` stands 130 to 132 °C; under `COc1cc2c(cc1OC)/C(=N/OCc1ccc([N+](=O)[O-])cc1)CC2`, 139 to 144 °C.

Molecule `CN(C)c1noc(-c2ncn3c2COc2cc(F)ccc2-3)n1` gave a melting point of 239 to 240 °C. Regarding `COC(=O)C1CN(C)CCC1c1ccc(F)cc1` (centres undefined), the melting point fell in the range of 88 to 89 °C. With `CCCn1cc(-c2ccc3nnn(Cc4ccc5ncccc5c4)c3n2)cn1` the figure was 128 to 130 °C; with `CC1CCC(=O)N1CC(=O)NCCN1C(C)CCCC1C` (centres undefined), 115 to 116 °C. With `CC(C)c1cccc(C(C)C)c1N1C(=O)c2cccc3c(Cl)ccc(c23)C1=O` the figure was 289 °C; with `CN(c1cccc2c(F)c(C3=NCC(CC(N)=O)S3)[nH]c12)S(=O)(=O)c1cccs1` (centres undefined), 204 to 205 °C.

Molecule `COc1ccc(-c2nc(-c3ccccc3)nc(-c3ccccc3)n2)c(O)c1` gave a melting point of 211 to 212 °C. With `COC(=O)c1cc(C=O)c(C(F)(F)F)cc1NC(C)=O` the figure was 106 to 108 °C. In the case of `COc1cc2c(c(Cl)c1Cl)C1=CC(=O)CCC1(CCCCl)C2` (centres undefined), the melting point was in the range of 183 to 185 °C. With `Cc1cc(Cn2nnn(-c3ccc(C(F)(F)F)cc3)c2=O)ccc1N` the figure was 210 to 211 °C. Under `Cc1oc(-c2ccccc2)nc1COc1ccc(COc2nn(C)cc2CC(=O)O)cn1` stands 139 to 140 °C; under `O=C(Nc1cc(Cl)cc(Cl)c1O)Nc1cccc(C(F)(F)F)c1Cl`, 161 to 163 °C; under `CC(C)(C)CNc1cc(Cl)nc(Cl)n1`, 77 to 79 °C. With `Cc1ccc(S(=O)(=O)NO[Si](C)(C)C)cc1` the figure was 87 to 90 °C. `S=C1Nc2cccnc2Nc2cscc21` had a melting point of 255 to 260 °C. Under `CS(=O)(=O)c1ccc(/C(=C\C2CCCC2)C(=O)O)cc1` stands 200 to 202 °C; under `CCC(C(=O)N(CC)CC)n1cc(C)c(-c2ccccc2)n1` (centres undefined), 80 to 82 °C. In the case of `CC(C)(C)CC1NC(C(=O)NCC2CCC(O)CC2)C(c2cccc(Cl)c2F)C12C(=O)Nc1cc(Cl)ccc12` (centres undefined), the melting point amounted to 192 °C. With `O=C1NCc2cnc(Nc3ccc(N4CCCCC4CO)cc3)nc2N1C1CCCC1` (centres undefined) the figure was 220 to 221 °C; with `NC(=O)CC(=O)c1ccc(-c2ccc(Cl)cc2)o1`, 180 to 181 °C. Under `O=C1CSCCN1c1ccc(C(F)(F)F)cc1` stands 79 to 80 °C; under `CC1(C)Cc2nsc(=Nc3c(F)cc(Cl)c4nc(Cl)sc34)n2C1`, 134 to 136 °C. Under `CCCOc1ccc(CNc2cc(C(=O)Nc3ccccc3)ccc2OC)cc1` stands 154 to 156 °C; under `COc1ccc(C(=O)Sc2ccccn2)cc1`, 73 °C. The molecule `O=C(NC1CCCC1)c1ccc(F)c2c1CC(N(CCCc1c[nH]c3ccc(F)cc13)C1CCC1)CO2` (centres undefined) yielded a melting point of 133 °C. As for `COC(=O)c1c(NC(C)=O)sc2c1CCC(c1ccccc1)C2` (centres undefined), the melting point fell in the range of 116 to 117 °C. With `Cc1noc(NS(=O)(=O)c2ccccc2-c2ccc(Cn3c(=O)oc4ccccc43)cc2)c1C` the figure was 182 to 183 °C. Under `CC12CCC3c4ccc(O)cc4C(CC(=O)O)CC3C1CC(O)C2O` (centres undefined) stands 259 to 262 °C; under `CC(C)[Si](C)(C)CCCSCCCNC(=O)n1cc(F)c(=O)[nH]c1=O`, 101 to 102 °C; under `CCOC(=O)c1c(OCC)ccn1C(=O)n1cccc1C(=O)O`, 58 to 60 °C. Under `CCCCCCNC(=O)Oc1cccc(NC(=O)CC(C)=O)c1` stands 125 °C; under `CSc1ccc(N2CC=C(c3cccc(C)c3)CC2)nn1`, 130 °C; under `CCN(CC)c1ccc(-c2ccc3c(c2)C=C(C(=O)Nc2ccc(CN(C)C4CCOCC4)cc2)CCS3(=O)=O)cc1`, 240 to 246 °C. The molecule `c1ccc2c(c1)ncc1nc(C3CCC3)[nH]c12` displayed a melting point of 191 to 192 °C. Regarding `CC(C)n1nc(-c2c(Cl)nc(N)nc2-c2ccccc2)ccc1=O`, the melting point was in the range of 235 to 237 °C. Under `CCCCCCCOc1ccc(CNc2ccc(C(=O)O)cc2)cc1` stands 148 to 152 °C; under `COC(=O)Cc1ccc(C2=CC(=O)c3ccccc3C2=O)n1C`, 89 to 90 °C; under `C#CCN1CCN(C(C)=O)CC1`, 63 to 65 °C. Under `Cc1c(C(=O)c2cnn(C)c2OCc2ccccc2)ccc(S(C)(=O)=O)c1C1=NOCC1` stands 152 to 153 °C; under `CCOC(=O)Cc1c[nH]c2nc(Nc3ccccc3)nn2c1=O`, 255 to 257 °C; under `CCOC(=O)c1cc(Cl)cc(NCS(=O)(=O)c2ccc(Cl)cc2)c1Cl`, 173 to 175 °C. Molecule `O=C1NC(Cc2ccccc2)=C2OCOCOC2C(Cc2ccccc2)N1` (centres undefined) had a melting point of 125 to 130 °C. With `O=CC1c2ccccc2CCc2ccccc21` the figure was 76 to 77 °C; with `Cc1ccc(C=CC(=O)C(CCC(=O)O)(Cc2ccccc2Cl)c2ccccc2)cc1` (centres undefined), 120 to 147 °C; with `CN(C)C(=O)Cc1c[nH]c2ccc(I)cc12`, 195 to 200 °C.

As for `COc1ccc(CC2(C(F)F)NC(=O)NC2=O)cc1` (centres undefined), the melting point was found to be 164 °C.

For `O=C(O)/C=C/n1cnc2ccc(Cl)cc2c1=O`, the melting point fell in the range of 297 to 298 °C. Under `OCC1CC(n2c(N3CCC3)nc3cc(Cl)c(Cl)cc32)C(O)C1O` (centres undefined) stands 221 to 222 °C; under `C[C@@H](SN1CCOCC1)[C@](O)(Cn1cncn1)c1ccc(F)cc1F`, 119 to 121 °C. `CC(C)C(=O)n1cc(-c2ccc(Oc3ccccc3)cc2)c2c(N)ncnc21` had a melting point of 160 to 161 °C. With `Clc1cc(CBr)ccc1-c1ccccc1C1=NNN(C(c2ccccc2)(c2ccccc2)c2ccccc2)N1`, the melting point lay in the range of 15 to 60 °C. With `O=[N+]([O-])c1ccccc1Oc1ccc(OCc2ccc(F)c(F)c2)cc1` the figure was 74 to 75 °C; with `Cc1cc(C)c(-c2nc(C)cc3c2ncn3Cc2ccccc2)c(C)c1`, 177 to 180 °C; with `CCCCCCCCCCCC/C=C/c1ccc2c(c1)OCO2`, 34 to 36 °C. Under `Nc1cc(-c2ccnc3c(C(=O)c4cccs4)cnn23)ccc1F` stands 241 to 242 °C; under `CCCn1nc(C(C)C)c(C(=O)O)c1Cc1ccc(-c2ccccc2S(=O)(=O)NC(=O)OCC(C)C)c(F)c1`, 77 to 82 °C; under `CCS(=O)(=O)N(C)Cc1ccc2[nH]cc(CCCN3CCN(c4ncncc4OC)CC3)c2c1`, 113 to 115 °C. `O=C(CCCO)N1CCCCC1` showed a melting point of 31 to 33 °C. In turn, `CCC1(CC)CN(C(C)(C)C)C(=O)C(CC)(CC)N1OC(C)(C)C#N` returned a melting point of 45 to 52 °C.

In turn, `Cc1nc2c(O[C@@H]3c4ccccc4C[C@H]3O)cc(Cl)cn2c1N` (relative stereo) showed a melting point of 223 to 225 °C. Under `CCCc1ccc(S(=O)(=O)NCc2ccccn2)cc1` stands 109 °C.
